The values below come from article PMC10078976 (Nature chemistry, 2022).

What is called Kd is the constant that tells how readily two partners part at equilibrium. Read a low Kd as higher affinity.

For data set [1] the following is noted: lasso peptides, aspartimide hydrolysis; cited from earlier work.
Data set [2] addresses doubly dehydrated C62A ThfA (Thermobifida fusca). The data set can be described thus: BLI.
The target of data set [3] is unmodified C62A ThfA (Thermobifida fusca). The data set can be described thus: BLI. A general note: Biolayer interferometry detects binding as a change in optical thickness at a sensor tip.

As to cellulonodin-2, the “regioselectivity of aspartimide opening” value in data set [1] is “open exclusively to the Asp backbone form”.
Turning to lihuanodin, in data set [1], the “regioselectivity of aspartimide opening” value is listed as “open exclusively to the Asp backbone form”.

B1: maltose binding protein (MBP) fusion to ThfB (enzyme)
chain: MSQAEYEFAATEARRGFGGIINSLTGWINHPSAIGRAEYKPYQLHHAVQAGLNVPRTLITNDPKQAKGWCARVGDVVYKPLSAPSWLENGDTYVVFTTPITPDQWGDPAIGRTAHMFQQRLDKEFEVRLTMVDGKAFPAAIHAHSDAARIDWRSDYDALTYSIPTVPQRVLTGARDLLRRLHLRYAALDFIVSPDGRWHFLEVNPNGQYGWIEEHTGQPISDAIADALTRKEN
modifications: not checked
Turning to B1, the Kd in data set [2] amounted to 18 nM; in data set [3] it was 28 nM.
